From the supplement of paper PMC4862054

tested on: DU-4475; experiment: normalised response (% of control), CellTox Green; higher = less cell death (100 = DMSO, 0 = benzethonium chloride kill control); details: incubation time: 72 h
Procedure, shortened: (§1)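 Breast cancer cell lines (20 µl suspension) were seeded into 384-well plates holding compound at 5 concentrations in 10-fold steps over a compound-specific 10,000-fold range, then incubated 72 h. CellTox Green fluorescence (485/520 nm) was read first, then CellTiter-Glo luminescence after 10 min at room temperature. Each plate was normalised to 0.1 % DMSO (100) and a positive kill control (0). Each value is the normalised signal at a single concentration of the series.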

SMILES	normalised response [%]
CC(=O)O[C@]1(C(C)=O)CC[C@H]2[C@@H]3C=C(C)C4=CC(=O)CC[C@]4(C)[C@H]3CC[C@@]21C [Megestrol acetate] (100 nM)	99.9
CN(C)C/C=C/C(=O)Nc1cc2c(Nc3ccc(F)c(Cl)c3)ncnc2cc1O[C@H]1CCOC1 [Afatinib] (10 nM)	97.6
COc1cccc2cc(-c3nc([C@H]4CC[C@H](C(=O)O)CC4)n4ncnc(N)c34)[nH]c12 [OSI-027] (100 nM)	98.5
N#CC[C@H](C1CCCC1)n1cc(-c2ncnc3[nH]ccc23)cn1 [Ruxolitinib] (100 nM)	96.2

tested on: CAL-85-1; experiment: as above; details: incubation time: 72 h
Procedure, shortened: as §1

SMILES	normalised response [%]
O=C(c1ccc(C(=O)N2CCC(N3CCCC3)CC2)c(Nc2ccccc2)c1)N1CCC(N2CCCC2)CC1 [UNC1215] (300 nM)	98.7
CN1CC[C@H](c2c(O)cc(O)c3c(=O)cc(-c4ccccc4Cl)oc23)[C@H](O)C1 [Alvocidib] (100 nM)	91.1
OC[C@H]1O[C@@H](n2cnc3c2N=CNC[C@H]3O)C[C@@H]1O [Pentostatin] (100 nM)	106
Nc1nc(Cl)nc2c1ncn2[C@H]1C[C@H](O)[C@@H](CO)O1 [Cladribine] (10 nM)	107
COc1cccc2c1C(=O)c1c(O)c3c(c(O)c1C2=O)C[C@@](O)(C(=O)CO)C[C@@H]3O[C@H]1C[C@H](N)[C@H](O)[C@H](C)O1 [Doxorubicin] (10 nM)	100
CC(=O)O[C@]1(C(C)=O)CC[C@H]2[C@@H]3C=C(C)C4=CC(=O)CC[C@]4(C)[C@H]3CC[C@@]21C [Megestrol acetate] (100 nM)	103
CN(C)C/C=C/C(=O)Nc1cc2c(Nc3ccc(F)c(Cl)c3)ncnc2cc1O[C@H]1CCOC1 [Afatinib] (10 nM)	94.8
COc1cccc2cc(-c3nc([C@H]4CC[C@H](C(=O)O)CC4)n4ncnc(N)c34)[nH]c12 [OSI-027] (100 nM)	95.9
N#CC[C@H](C1CCCC1)n1cc(-c2ncnc3[nH]ccc23)cn1 [Ruxolitinib] (100 nM)	97.7

tested on: HCC1143; experiment: as above; details: incubation time: 72 h
Procedure, shortened: as §1

SMILES	normalised response [%]
O=C(c1ccc(C(=O)N2CCC(N3CCCC3)CC2)c(Nc2ccccc2)c1)N1CCC(N2CCCC2)CC1 [UNC1215] (300 nM)	93.9
CN1CC[C@H](c2c(O)cc(O)c3c(=O)cc(-c4ccccc4Cl)oc23)[C@H](O)C1 [Alvocidib] (100 nM)	114
OC[C@H]1O[C@@H](n2cnc3c2N=CNC[C@H]3O)C[C@@H]1O [Pentostatin] (100 nM)	88.7
Nc1nc(Cl)nc2c1ncn2[C@H]1C[C@H](O)[C@@H](CO)O1 [Cladribine] (10 nM)	53.3
COc1cccc2c1C(=O)c1c(O)c3c(c(O)c1C2=O)C[C@@](O)(C(=O)CO)C[C@@H]3O[C@H]1C[C@H](N)[C@H](O)[C@H](C)O1 [Doxorubicin] (10 nM)	112
CC(=O)O[C@]1(C(C)=O)CC[C@H]2[C@@H]3C=C(C)C4=CC(=O)CC[C@]4(C)[C@H]3CC[C@@]21C [Megestrol acetate] (100 nM)	74
N#CC[C@H](C1CCCC1)n1cc(-c2ncnc3[nH]ccc23)cn1 [Ruxolitinib] (100 nM)	96.9

tested on: MDA-MB-453; experiment: as above; details: incubation time: 72 h
Procedure, shortened: as §1

SMILES	normalised response [%]
O=C(c1ccc(C(=O)N2CCC(N3CCCC3)CC2)c(Nc2ccccc2)c1)N1CCC(N2CCCC2)CC1 [UNC1215] (300 nM)	100
CN1CC[C@H](c2c(O)cc(O)c3c(=O)cc(-c4ccccc4Cl)oc23)[C@H](O)C1 [Alvocidib] (100 nM)	106
OC[C@H]1O[C@@H](n2cnc3c2N=CNC[C@H]3O)C[C@@H]1O [Pentostatin] (100 nM)	103
Nc1nc(Cl)nc2c1ncn2[C@H]1C[C@H](O)[C@@H](CO)O1 [Cladribine] (10 nM)	58.9
COc1cccc2c1C(=O)c1c(O)c3c(c(O)c1C2=O)C[C@@](O)(C(=O)CO)C[C@@H]3O[C@H]1C[C@H](N)[C@H](O)[C@H](C)O1 [Doxorubicin] (10 nM)	105
CC(=O)O[C@]1(C(C)=O)CC[C@H]2[C@@H]3C=C(C)C4=CC(=O)CC[C@]4(C)[C@H]3CC[C@@]21C [Megestrol acetate] (100 nM)	104
CN(C)C/C=C/C(=O)Nc1cc2c(Nc3ccc(F)c(Cl)c3)ncnc2cc1O[C@H]1CCOC1 [Afatinib] (10 nM)	82.9
COc1cccc2cc(-c3nc([C@H]4CC[C@H](C(=O)O)CC4)n4ncnc(N)c34)[nH]c12 [OSI-027] (100 nM)	101
N#CC[C@H](C1CCCC1)n1cc(-c2ncnc3[nH]ccc23)cn1 [Ruxolitinib] (100 nM)	99

tested on: MDA-MB-468; experiment: as above; details: incubation time: 72 h
Procedure, shortened: as §1

SMILES	normalised response [%]
O=C(c1ccc(C(=O)N2CCC(N3CCCC3)CC2)c(Nc2ccccc2)c1)N1CCC(N2CCCC2)CC1 [UNC1215] (300 nM)	129
CN1CC[C@H](c2c(O)cc(O)c3c(=O)cc(-c4ccccc4Cl)oc23)[C@H](O)C1 [Alvocidib] (100 nM)	111
OC[C@H]1O[C@@H](n2cnc3c2N=CNC[C@H]3O)C[C@@H]1O [Pentostatin] (100 nM)	104
COc1cccc2c1C(=O)c1c(O)c3c(c(O)c1C2=O)C[C@@](O)(C(=O)CO)C[C@@H]3O[C@H]1C[C@H](N)[C@H](O)[C@H](C)O1 [Doxorubicin] (10 nM)	91.5
CC(=O)O[C@]1(C(C)=O)CC[C@H]2[C@@H]3C=C(C)C4=CC(=O)CC[C@]4(C)[C@H]3CC[C@@]21C [Megestrol acetate] (100 nM)	149
CN(C)C/C=C/C(=O)Nc1cc2c(Nc3ccc(F)c(Cl)c3)ncnc2cc1O[C@H]1CCOC1 [Afatinib] (10 nM)	70.8
COc1cccc2cc(-c3nc([C@H]4CC[C@H](C(=O)O)CC4)n4ncnc(N)c34)[nH]c12 [OSI-027] (100 nM)	77.1
N#CC[C@H](C1CCCC1)n1cc(-c2ncnc3[nH]ccc23)cn1 [Ruxolitinib] (100 nM)	52.5

tested on: BT-549; experiment: as above; details: incubation time: 72 h
Procedure, shortened: as §1

SMILES	normalised response [%]
O=C(c1ccc(C(=O)N2CCC(N3CCCC3)CC2)c(Nc2ccccc2)c1)N1CCC(N2CCCC2)CC1 [UNC1215] (300 nM)	94.4
CN1CC[C@H](c2c(O)cc(O)c3c(=O)cc(-c4ccccc4Cl)oc23)[C@H](O)C1 [Alvocidib] (100 nM)	101
OC[C@H]1O[C@@H](n2cnc3c2N=CNC[C@H]3O)C[C@@H]1O [Pentostatin] (100 nM)	99.5
Nc1nc(Cl)nc2c1ncn2[C@H]1C[C@H](O)[C@@H](CO)O1 [Cladribine] (10 nM)	97.8
COc1cccc2c1C(=O)c1c(O)c3c(c(O)c1C2=O)C[C@@](O)(C(=O)CO)C[C@@H]3O[C@H]1C[C@H](N)[C@H](O)[C@H](C)O1 [Doxorubicin] (10 nM)	82.1
CC(=O)O[C@]1(C(C)=O)CC[C@H]2[C@@H]3C=C(C)C4=CC(=O)CC[C@]4(C)[C@H]3CC[C@@]21C [Megestrol acetate] (100 nM)	95.4
CN(C)C/C=C/C(=O)Nc1cc2c(Nc3ccc(F)c(Cl)c3)ncnc2cc1O[C@H]1CCOC1 [Afatinib] (10 nM)	67.8
COc1cccc2cc(-c3nc([C@H]4CC[C@H](C(=O)O)CC4)n4ncnc(N)c34)[nH]c12 [OSI-027] (100 nM)	93.2
N#CC[C@H](C1CCCC1)n1cc(-c2ncnc3[nH]ccc23)cn1 [Ruxolitinib] (100 nM)	108

tested on: MDA-MB-436; experiment: as above; details: incubation time: 72 h
Procedure, shortened: as §1

SMILES	normalised response [%]
O=C(c1ccc(C(=O)N2CCC(N3CCCC3)CC2)c(Nc2ccccc2)c1)N1CCC(N2CCCC2)CC1 [UNC1215] (300 nM)	65.3
CN1CC[C@H](c2c(O)cc(O)c3c(=O)cc(-c4ccccc4Cl)oc23)[C@H](O)C1 [Alvocidib] (100 nM)	69.6
OC[C@H]1O[C@@H](n2cnc3c2N=CNC[C@H]3O)C[C@@H]1O [Pentostatin] (100 nM)	90.5
COc1cccc2c1C(=O)c1c(O)c3c(c(O)c1C2=O)C[C@@](O)(C(=O)CO)C[C@@H]3O[C@H]1C[C@H](N)[C@H](O)[C@H](C)O1 [Doxorubicin] (10 nM)	94.8
CC(=O)O[C@]1(C(C)=O)CC[C@H]2[C@@H]3C=C(C)C4=CC(=O)CC[C@]4(C)[C@H]3CC[C@@]21C [Megestrol acetate] (100 nM)	107
CN(C)C/C=C/C(=O)Nc1cc2c(Nc3ccc(F)c(Cl)c3)ncnc2cc1O[C@H]1CCOC1 [Afatinib] (10 nM)	96.1
N#CC[C@H](C1CCCC1)n1cc(-c2ncnc3[nH]ccc23)cn1 [Ruxolitinib] (100 nM)	83.7

tested on: BT-474; experiment: as above; details: incubation time: 72 h
Procedure, shortened: as §1

SMILES	normalised response [%]
O=C(c1ccc(C(=O)N2CCC(N3CCCC3)CC2)c(Nc2ccccc2)c1)N1CCC(N2CCCC2)CC1 [UNC1215] (300 nM)	101
CN1CC[C@H](c2c(O)cc(O)c3c(=O)cc(-c4ccccc4Cl)oc23)[C@H](O)C1 [Alvocidib] (100 nM)	98.4
OC[C@H]1O[C@@H](n2cnc3c2N=CNC[C@H]3O)C[C@@H]1O [Pentostatin] (100 nM)	101
Nc1nc(Cl)nc2c1ncn2[C@H]1C[C@H](O)[C@@H](CO)O1 [Cladribine] (10 nM)	100
COc1cccc2c1C(=O)c1c(O)c3c(c(O)c1C2=O)C[C@@](O)(C(=O)CO)C[C@@H]3O[C@H]1C[C@H](N)[C@H](O)[C@H](C)O1 [Doxorubicin] (10 nM)	98
CC(=O)O[C@]1(C(C)=O)CC[C@H]2[C@@H]3C=C(C)C4=CC(=O)CC[C@]4(C)[C@H]3CC[C@@]21C [Megestrol acetate] (100 nM)	101
CN(C)C/C=C/C(=O)Nc1cc2c(Nc3ccc(F)c(Cl)c3)ncnc2cc1O[C@H]1CCOC1 [Afatinib] (10 nM)	95.2
COc1cccc2cc(-c3nc([C@H]4CC[C@H](C(=O)O)CC4)n4ncnc(N)c34)[nH]c12 [OSI-027] (100 nM)	99.4
N#CC[C@H](C1CCCC1)n1cc(-c2ncnc3[nH]ccc23)cn1 [Ruxolitinib] (100 nM)	97.1

tested on: HCC1937; experiment: as above; details: incubation time: 72 h
Procedure, shortened: as §1

SMILES	normalised response [%]
O=C(c1ccc(C(=O)N2CCC(N3CCCC3)CC2)c(Nc2ccccc2)c1)N1CCC(N2CCCC2)CC1 [UNC1215] (300 nM)	85.9
CN1CC[C@H](c2c(O)cc(O)c3c(=O)cc(-c4ccccc4Cl)oc23)[C@H](O)C1 [Alvocidib] (100 nM)	113
OC[C@H]1O[C@@H](n2cnc3c2N=CNC[C@H]3O)C[C@@H]1O [Pentostatin] (100 nM)	96.4
Nc1nc(Cl)nc2c1ncn2[C@H]1C[C@H](O)[C@@H](CO)O1 [Cladribine] (10 nM)	88.3
COc1cccc2c1C(=O)c1c(O)c3c(c(O)c1C2=O)C[C@@](O)(C(=O)CO)C[C@@H]3O[C@H]1C[C@H](N)[C@H](O)[C@H](C)O1 [Doxorubicin] (10 nM)	91.2
CC(=O)O[C@]1(C(C)=O)CC[C@H]2[C@@H]3C=C(C)C4=CC(=O)CC[C@]4(C)[C@H]3CC[C@@]21C [Megestrol acetate] (100 nM)	68.3
CN(C)C/C=C/C(=O)Nc1cc2c(Nc3ccc(F)c(Cl)c3)ncnc2cc1O[C@H]1CCOC1 [Afatinib] (10 nM)	113
COc1cccc2cc(-c3nc([C@H]4CC[C@H](C(=O)O)CC4)n4ncnc(N)c34)[nH]c12 [OSI-027] (100 nM)	90.9
N#CC[C@H](C1CCCC1)n1cc(-c2ncnc3[nH]ccc23)cn1 [Ruxolitinib] (100 nM)	91.7

tested on: MCF-10A; experiment: as above; details: incubation time: 72 h
Procedure, shortened: as §1

SMILES	normalised response [%]
O=C(c1ccc(C(=O)N2CCC(N3CCCC3)CC2)c(Nc2ccccc2)c1)N1CCC(N2CCCC2)CC1 [UNC1215] (300 nM)	86.4
CN1CC[C@H](c2c(O)cc(O)c3c(=O)cc(-c4ccccc4Cl)oc23)[C@H](O)C1 [Alvocidib] (100 nM)	91.8
OC[C@H]1O[C@@H](n2cnc3c2N=CNC[C@H]3O)C[C@@H]1O [Pentostatin] (100 nM)	94.7
Nc1nc(Cl)nc2c1ncn2[C@H]1C[C@H](O)[C@@H](CO)O1 [Cladribine] (10 nM)	102
COc1cccc2c1C(=O)c1c(O)c3c(c(O)c1C2=O)C[C@@](O)(C(=O)CO)C[C@@H]3O[C@H]1C[C@H](N)[C@H](O)[C@H](C)O1 [Doxorubicin] (10 nM)	90
CC(=O)O[C@]1(C(C)=O)CC[C@H]2[C@@H]3C=C(C)C4=CC(=O)CC[C@]4(C)[C@H]3CC[C@@]21C [Megestrol acetate] (100 nM)	64.5
CN(C)C/C=C/C(=O)Nc1cc2c(Nc3ccc(F)c(Cl)c3)ncnc2cc1O[C@H]1CCOC1 [Afatinib] (10 nM)	12.3
COc1cccc2cc(-c3nc([C@H]4CC[C@H](C(=O)O)CC4)n4ncnc(N)c34)[nH]c12 [OSI-027] (100 nM)	98.3
N#CC[C@H](C1CCCC1)n1cc(-c2ncnc3[nH]ccc23)cn1 [Ruxolitinib] (100 nM)	86.5
